Measured values: patent US20240018125A1, “CYCLIC ISOTHIOUREA DERIVATIVES AS CXCR4 MODULATORS” (ERMIUM THERAPEUTICS, priority 2020, published 2024)
pIC50: −log10 of the molar value. Structures can show the parent of a compound that is named as a salt.

Columns and labels:
[1] = tested on: irrelevant G-protein coupled receptor (GPCR); experiment: G.Validation fluorescence assay on irrelevant GPCR control; format: biochemical; details: SDF1α 15 μM, AMD3100 100 μM, Example 60 150 μM; SB3L1
[2] = molecular target: T1, Recombinant CXCR4 receptor (Homo sapiens, UniProt P61073); experiment: G.Validation fluorescence assay of CXCR4 receptor conformational changes in lipidic micelles SB2L4 and SB3L1; format: biochemical; details: ligand 150 μM over basal state, 5 μM labelled CXCR4, 40 min
T1 construct: host or cells: HEK-293 T cells
T1 sequence (P61073 whole entry): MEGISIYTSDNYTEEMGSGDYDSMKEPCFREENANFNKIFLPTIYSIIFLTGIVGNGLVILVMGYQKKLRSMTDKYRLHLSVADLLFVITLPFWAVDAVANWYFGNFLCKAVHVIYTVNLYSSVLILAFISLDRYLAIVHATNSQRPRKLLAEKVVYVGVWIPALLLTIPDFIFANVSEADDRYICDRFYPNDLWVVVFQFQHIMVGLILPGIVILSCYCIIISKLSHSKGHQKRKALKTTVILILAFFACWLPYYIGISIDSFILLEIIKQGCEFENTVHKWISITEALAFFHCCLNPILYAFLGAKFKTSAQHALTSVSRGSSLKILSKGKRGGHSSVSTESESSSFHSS
Source text: G.Validation® assay is […] biotech proprietary fluorescence based assay that assesses conformational changes of a receptor upon activation/inactivation. Recombinant CXCR4 receptor is produced and purified from HEK-293 T cells using […] proprietary mixes. Receptor is then reconstituted in detergent buffers containing lipids mimicking the lipidic composition of dendritic cells (DC) and macrophages (SB2L4 and SB3L1). Thereafter, the receptor is labelled with a non-modifying probe allowing the detection of the activation state and conformational change of the receptor upon addition of a ligand. Indeed, the probe emission spectra maximum wavelength (Amax) shifts according to activation/inactivation of the receptor. Thus, kinetic of activation/inactivation of the receptor can be followed by monitoring Amax shift after addition of a ligand over time. Emission spectra were registered for 40 minutes after addition of each ligand. […] Activation/inactivation kinetics were also followed using an exemplary compound of formula (I), i.e.

[3] = molecular target: T2, human CXCR4 (hCXCR4) receptor (Homo sapiens, UniProt P61073); experiment: BRET assay of antagonist activity on the CXCR4-CXCL12 signaling pathway (Gαi2 recruitment) in HEK-293 T cells; format: cell-based; details: HEK-293 T cells with hCXCR4, Gαi2 and BRET biosensors; 10 min with compound, then EC80 CXCL12
T2 construct: expressed in transfected cells; host or cells: HEK-293 T cells, transient co-transfection with polyethylenimine
T2 sequence (P61073 whole entry): as above
Description: Examples of the present invention were tested for their antagonist activity on human CXCR4 (hCXCR4) receptor transiently over-expressed in HEK-293 T cells. Compounds exert antagonist activity if they decrease the action of CXCL12 on the receptor.
The specific effector (luciferase tagged: BRET donor) recruited at the membrane will be in close proximity to a plasma membrane anchor (GFP tagged: BRET acceptor) to induce a BRET signal (Hamdan et a1, 2006, Chapter 5, Current Protocols in Neuroscience).
HEK-293 T cells are maintained in Dulbecco's Modified Eagle's Medium supplemented with 10% Foetal Calf Serum, 1% Penicillin/Streptomycin at 37° C./5% CO2. Cells are co-transfected using polyethylenimine (25 kDa linear) with several DNA plasmids encoding: hCXCR4; Gai2; an intracellular effector fused to luciferase (BRET donor); a plasma membrane effector fused to GFP (BRET acceptor). After transfection, cells are cultured for 48 h at 37° C./5% CO2. On the day of the assay, cells are detached using trypsin 0.05%, resuspended in assay buffer (1.8 mM CaCl2, 1 mM MgCl2, 2.7 mM KCl, 137 mM NaCl, 0.4 mM NaH2PO4, 5.5 mM D-Glucose, 11.9 mM NaHCO3, 25 mM Hepes) and seeded in 384 well plate at a density of 20,000 cells per well. Then, plates are equilibrated 3.5 h at 37° C. before adding compounds. Compounds and luciferase substrate are added to the cells using an automated device (Freedom Evo®, Tecan) and BRET readings are collected on EnVision (PerkinElmer) with specific filters (410 nm BW 80 nm, 515 nm BW 30 nm).
Cells are first incubated for 10 minutes with the compound alone. Then, cells are stimulated by an EC80 CXCL12 concentration for additional 10 minutes and luminescence is recorded. EC80 CXCL12 concentration is the concentration giving 80% of the maximal CXCL12 response. Antagonist activity is evaluated in comparison to basal signals evoked by EC80 CXCL12 alone.
For IC50 determination, a dose-response test is performed using 20 concentrations (ranging over 6 logs) of each compound. Dose-response curves are fitted using the sigmoidal dose-response (variable slope) analysis in GraphPad Prism software (GraphPad Software) and IC50 of antagonist activity is calculated. Dose-response experiments are performed in duplicate, in two independent experiments.
HEK-293 T cells were transfected to allow measuring the recruitment of Gai2 proteins involved in intracellular signaling by human CXCR4 receptor (hCXCR4) via the BRET technology. Cells were then incubated with various concentrations of examples of the invention before stimulation with an EC80 concentration of CXCL12.

[4] = tested on: Female Balb/c mice, pristane-induced lupus; experiment: In vivo pristane-induced lupus mouse model, anti-dsDNA antibody titers in serum by ELISA
Description: Female Balb/c mice (6 to 8 weeks, ENVIGO, Indianapolis, USA) received a single i.p. injection with 0.5 mL of pristane (Sigma-Aldrich, St Louis, USA) to induce a lupus-like disease. That same day, once daily treatment was started (10 mL/kg), either with vehicle control (PBS) i.p., with prednisolone (Sigma-Aldrich, St Louis, USA) in PBS p.o. at a dose of 15 mg/kg (positive control), or with an exemplary compound of formula (I), i.e. Example 60, at a dose of either 3 mg/kg, 10 mg/kg or 30 mg/kg in PBS i.p. After 4, 6 and 8 weeks of dosing, sample bleeds for each mouse were collected via the orbital sinus, and immediately cold processed to sera and stored (50 μl) at −80° C. until analysis. In serum, anti-dsDNA antibody titers are determined using ELISA. Optical density was measured at 450 nm (OD450) using a microplate reader. Data are reported as anti-dsDNA Ab titers (OD), mean±S.E.M. as well as the statistical significance versus pristane-induced vehicle treated group using t-tests.

[5] = tested on: 129S8 mice infected with influenza A virus H3 N2 (X31); experiment: In vivo immunomodulating effect (type 1 IFNs in BALF) in acute influenza inflammation model; design: species or system mouse; details: […]; even lower than after ibuprofen

Clc1ccc2c(c1)CN=C(SCCCCN1CCCC1)N2 [Example 60, 6-chloro-2-((4-(pyrrolidin-1-yl)butyl)thio)-1,4-dihydroquinazoline dihydrochloride]
irrelevant GPCR activation state, Amax shift in fluorescence [1]: Neither benchmark ligands SDF1α and AMD3100, nor Example 60 showed any effect | CXCR4 structural activation/inactivation, Amax shift in fluorescence [2]: blue shift | pIC50 [3]: ≤ 4.82 | anti-dsDNA Ab titers in serum vs vehicle-treated pristane-induced mice ([4]; 3 mg/kg i.p. once daily, week 4): reduced | anti-dsDNA Ab titers in serum vs vehicle-treated pristane-induced mice ([4]; 10 mg/kg i.p. once daily, week 4): reduced | anti-dsDNA Ab titers in serum vs vehicle-treated pristane-induced mice ([4]; 10 mg/kg i.p. once daily, week 8, same range as prednisolone): significantly decreased | anti-dsDNA Ab titers in serum vs vehicle-treated pristane-induced mice ([4]; 30 mg/kg i.p. once daily, week 4): reduced | anti-dsDNA Ab titers in serum vs vehicle-treated pristane-induced mice ([4]; 30 mg/kg i.p. once daily, week 6): significantly lower | anti-dsDNA Ab titers in serum vs vehicle-treated pristane-induced mice ([4]; 30 mg/kg i.p. once daily, week 8, same range as prednisolone): significantly decreased | concentration of IFNα in BALF vs vehicle-treated infected mice [5]: significantly decreased | concentration of IFNβ in BALF vs vehicle-treated infected mice [5]: significantly decreased | concentration of IFNλ2/3 in BALF vs vehicle-treated infected mice [5]: significantly decreased
